Results taken from patent US9510589B2, “Use and agrochemical composition of carboxylic acid dibutylamides” (priority 2011, dated 2016).

What was measured:
[1] = test system: enzymatically isolated cuticles of apple tree leaves; assay: Penetration test, isopyrazam (Example 13); format: in vitro ADME, apple trees of the Golden Delicious variety; conditions: without N,N-dibutylcarboxamide, 0.3 g/l isopyrazam in acetone/water, 20° C., 60% relative air humidity
Experimental: (§1) In this test, the penetration of active ingredients though enzymatically isolated cuticles of apple tree leaves was measured. Leaves which had been cut off in the fully developed state from apple trees of the Golden Delicious variety were used.
(§2) Thereafter, only the cuticles of the upper leaf sides which were free of stomata and hairs were used in the further procedure. They were repeatedly washed alternately with water and a buffer solution of pH 7. The clean cuticles obtained were finally applied to Teflon sheets and smoothed and dried with a gentle air stream.
(§3) In the next step, the cuticular membranes thus obtained were placed into stainless steel diffusion cells (=transport chambers) for membrane transport studies. For this purpose, the cuticles were positioned using tweezers centrally onto the edges of the diffusion cells which had been smeared with silicone grease and sealed with a ring which had likewise been greased. The arrangement was selected such that the morphological outer side of the cuticles was directed outward, i.e. toward the air, while the original inner side faced the interior of the diffusion cell. […]
(§4) To determine the penetration, 10 μl in each case of a spray liquor of the composition specified in the examples were applied to the outer side of a cuticle. […] The active ingredient penetration was measured by means of HPLC or radiolabeled active ingredient.

[2] = test system: enzymatically isolated cuticles of apple tree leaves; assay: Penetration test, bromoxynil, dimethyl vs dibutyl amides (Example 6); format: in vitro ADME, apple trees of the Golden Delicious variety; conditions: no N,N-dialkylcarboxamide, 0.5 g/l castor oil ethoxylate emulsifier only, 1.5 g/l bromoxynil in acetone/water, 20° C., 60% relative air humidity
Experimental: as §1, §2, §3, §4

[3] = test system: isolated apple leaf cuticles; assay: Penetration test, fluopyram EC (Example 21); format: in vitro ADME, apple trees of the Golden Delicious variety; conditions: no carboxamide, 0.5 g/l fluopyram, 0.5 g/l emulsifier, 2% by weight solvent, 25° C., 60% relative air humidity
Experimental: The active ingredient fluopyram was made up as an EC formulation in the laboratory: fluopyram is dissolved in a preliminary mixture of solvent and emulsifier (dimethylacetamide+Tanemul PS16) and diluted with water to give the ready-to-use test solution. The test solution contains 0.5 g/l active ingredient, 0.5 g/l emulsifier and 2% by weight of solvent.

[4] = test system: enzymatically isolated cuticles of apple tree leaves; assay: Penetration test, epoxiconazole (Example 11); format: in vitro ADME, apple trees of the Golden Delicious variety; conditions: without N,N-dibutylcarboxamide, 0.3 g/l epoxiconazole in acetone/water, 20° C., 60% relative air humidity
Experimental: as §1, §2, §3, §4

[5] = test system: enzymatically isolated cuticles of apple tree leaves; assay: Penetration test, prothioconazole with dimethyl amide plus dibutyl amides (Example 17); format: in vitro ADME, apple trees of the Golden Delicious variety; conditions: no N,N-dibutylcarboxamide, 0.8 g/l prothioconazole in acetone/water with 1.5 g/l N,N-dimethyl-C8-C10-carboxamide and 0.4 g/l tristyrylphenol ethoxylate, n = 21, 20° C., 60% relative air humidity
Experimental: as §1, §2, §3, §4

[6] = test system: enzymatically isolated cuticles of apple tree leaves; assay: Penetration test, prothioconazole in acetone/water (Example 15); format: in vitro ADME, apple trees of the Golden Delicious variety; conditions: without N,N-dibutylcarboxamide, 0.3 g/l prothioconazole in acetone/water, 25° C., 60% relative air humidity
Experimental: as §1, §2, §3, §4

[7] = test system: enzymatically isolated cuticles of apple tree leaves; assay: Penetration test, kresoxim-methyl (Example 9); conditions: without N,N-dibutylcarboxamide, 0.3 g/l kresoxim-methyl in acetone/water, 20° C., 60% relative air humidity
Experimental: as §1, §2, §3, §4

[8] = test system: enzymatically isolated cuticles of apple tree leaves; assay: Penetration test, spirotetramat in acetone/water (Example 7); format: in vitro ADME, apple trees of the Golden Delicious variety; conditions: without N,N-dibutylcarboxamide, 0.3 g/l spirotetramat in acetone/water, 20° C., 60% relative air humidity
Experimental: as §1, §2, §3, §4

[9] = test system: enzymatically isolated cuticles of apple tree leaves; assay: Penetration test, azoxystrobin (Example 10); format: in vitro ADME, apple trees of the Golden Delicious variety; conditions: without N,N-dibutylcarboxamide, 0.3 g/l azoxystrobin in acetone/water, 20° C., 60% relative air humidity
Experimental: as §1, §2, §3, §4

[10] = test system: enzymatically isolated cuticles of apple tree leaves; assay: Penetration test, propiconazole (Example 12); format: in vitro ADME, apple trees of the Golden Delicious variety; conditions: without N,N-dibutylcarboxamide, 0.3 g/l propiconazole in acetone/water, 20° C., 60% relative air humidity
Experimental: as §1, §2, §3, §4

`CC(C)C1C2CCC1c1c(NC(=O)c3cn(C)nc3C(F)F)cccc12` (centres unmarked) [isopyrazam] was tested, and the “Mean penetration of isopyrazam in % 3 h” value ([1]; 3 h) was 1% and the “Mean penetration of isopyrazam in % 24 h” value ([1]; 24 h) was 2%.
For `N#Cc1cc(Br)c(O)c(Br)c1` [bromoxynil], the “Mean penetration of bromoxynil in % 5 h” value ([2]; 5 h) was 4% and the “Mean penetration of bromoxynil in % 24 h” value ([2]; 24 h) was 20%.
With `O=C(NCCc1ncc(C(F)(F)F)cc1Cl)c1ccccc1C(F)(F)F` [fluopyram] the “Mean penetration of fluopyram in % 6 h” value ([3]; 6 h) was 20% and the “Mean penetration of fluopyram in % 24 h” value ([3]; 24 h) was 53%.
`Fc1ccc([C@]2(Cn3cncn3)O[C@H]2c2ccccc2Cl)cc1` (racemic) [epoxiconazole] was tested, and the “Mean penetration of epoxiconazole in % 3 h” value ([4]; 3 h) was 1% and the “Mean penetration of epoxiconazole in % 24 h” value ([4]; 24 h) was 2%.
`OC(Cc1ccccc1Cl)(Cn1nc[nH]c1=S)C1(Cl)CC1` (centres unmarked) [prothioconazole] was tested, and the “Mean penetration of prothioconazole in % 3 h” value ([5]; 3 h) was 1.3 (n = 21) %, the “Mean penetration of prothioconazole in % 24 h” value ([5]; 24 h) was 3.7 (n = 21) % and the “Mean penetration of prothioconazole in % 3 h” value ([6]; 3 h) was 1%. The “Mean penetration of prothioconazole in % 24 h” value ([6]; 24 h) was 2%.
For `CO/N=C(/C(=O)OC)c1ccccc1COc1ccccc1C` [kresoxim-methyl], the “Mean penetration of kresoxim-methyl in % 3 h” value ([7]; 3 h) was 1% and the “Mean penetration of kresoxim-methyl in % 24 h” value ([7]; 24 h) was 3%.
With `CCOC(=O)OC1=C(c2cc(C)ccc2C)C(=O)N[C@]12CC[C@@H](OC)CC2` [spirotetramat] the “Mean penetration of spirotetramat in % 3 h” value ([8]; 3 h) was 0% and the “Mean penetration of spirotetramat in % 24 h” value ([8]; 24 h) was 1%.
With `CO/C=C(/C(=O)OC)c1ccccc1Oc1cc(Oc2ccccc2C#N)ncn1` [azoxystrobin] the “Mean penetration of azoxystrobin in % 3 h” value ([9]; 3 h) was under 1% and the “Mean penetration of azoxystrobin in % 24 h” value ([9]; 24 h) was 1%.
With `CCCC1COC(Cn2cncn2)(c2ccc(Cl)cc2Cl)O1` (centres unmarked) [propiconazole] the “Mean penetration of propiconazole in % 3 h” value ([10]; 3 h) was 4% and the “Mean penetration of propiconazole in % 24 h” value ([10]; 24 h) was 44%.
